Test system: LNCaP cells
Experiment: Western blotting of Cyclin B1, Cyclin D1, γ-H2A.X, phosph-p53, p21
Type: cell-based
Conditions: scrambled siRNA controls
Procedure: Western blotting: Twenty-five micrograms of protein were separated on 10% to 20% SDS-PAGE and transferred onto PVD filters (Millipore, Bedford, Mass.). Membranes were incubated with primary antibodies overnight at 4° C. followed by horseradish peroxidase-conjugated secondary antibodies, and developed with the Super Signal West Dura Extended Duration Substrate kit (Pierce). RBM3 antibody was generated in a rabbit against as peptide (Sigma-Gneosys, The Woodlands, Tex.). HSPA1A and CIRBP antibodies were obtained from Lifespan Biosciences (ProteinTech Group, Chicago, Ill.), phospho-Histone H2A.X antibody was obtained from Millipore. Other antibodies were purchased from Cell Signaling (Danvers, Mass.) and Santa Cruz (Santa Cruz, Calif.)
Prostate cancer cells PC-3 (FIG. 12A) and LNCaP (FIG. 12B) were transfected with 100 nM RBM3 or CIRBP SMARTpool siRNA. Forty-eight hours after transfection, cells were treated with 4 μg/ml cDDP or 1 μg/ml ADM for 4 h, and then moved back to normal medium for another 16 h. Cell lysates were subjected to Western blotting to detect Cyclin B1, Cyclin D1, phosph-histone H2A.X (Ser139) (γ-H2A.X), phosph-p53 (Ser15), and p21. Actin was used as a control for protein loading.

SMILES	activation of p53 by drug treatment
COc1cccc2c1C(=O)c1c(O)c3c(c(O)c1C2=O)C[C@@](O)(C(=O)CO)C[C@@H]3O[C@H]1C[C@H](N)[C@H](O)[C@H](C)O1 [ADM, adriamycin]	activated
[NH2][Pt]([NH2])([Cl])[Cl] [cDDP, cisplatin]	activated
